Test results from US6737383B1, “Herbicidal oxadiazolidines” (priority 1999, dated 2004).

Assays:
[1] = tested on: rice; experiment: Test B flood test rice; type: in vivo, Oryza sativa
Procedure, shortened: (§1)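 Plants were grown to the 2-leaf stage before treatment with test chemical, then held in a greenhouse for twelve to sixteen days. Injury was visually rated against untreated controls on a 0–10 scale, where 0 is no effect and 10 is complete control.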

[2] = tested on: bedstraw; experiment: Test B pre/postemergence bedstraw; type: in vivo, Galium aparine
Procedure, shortened: (§2)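 Herbicidal effect was estimated by eye on a ten-point control scale after plants spent twelve to sixteen days in a greenhouse following soil or foliar treatment. Foliar sprays targeted plants at one to four leaves; all doses were formulated in a non-phytotoxic solvent with surfactant.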

[3] = tested on: wheat; experiment: Test B pre/postemergence wheat; type: in vivo, Triticum aestivum
Procedure, shortened: as §2

[4] = tested on: corn; experiment: Test B pre/postemergence corn; type: in vivo, Zea mays
Procedure, shortened: as §2

[5] = tested on: cocklebur; experiment: Test B pre/postemergence cocklebur; type: in vivo, Xanthium strumarium
Procedure, shortened: as §2

[6] = tested on: morningglory; experiment: Test B pre/postemergence morningglory; type: in vivo, Ipomoea hederacea
Procedure, shortened: as §2

[7] = tested on: soybean; experiment: Test B pre/postemergence soybean; type: in vivo, Glycine max
Procedure, shortened: as §2

[8] = tested on: rape; experiment: Test B pre/postemergence rape; type: in vivo, Brassica napus
Procedure, shortened: as §2

[9] = tested on: wild oat; experiment: Test B pre/postemergence wild oat; type: in vivo, Avena fatua
Procedure, shortened: as §2

[10] = tested on: blackgrass; experiment: Test B pre/postemergence blackgrass; type: in vivo, Alopecurus myosuroides
Procedure, shortened: as §2

[11] = tested on: velvetleaf; experiment: Test B pre/postemergence velvetleaf; type: in vivo, Abutilon theophrasti
Procedure, shortened: as §2

[12] = tested on: smallflower flatsedge; experiment: Test B flood test smallflower flatsedge; type: in vivo, Cyperus difformis
Procedure, shortened: as §1

[13] = tested on: pigweed; experiment: Test B pre/postemergence pigweed; type: in vivo, Amaranthus retroflexus
Procedure, shortened: as §2

[14] = tested on: giant foxtail; experiment: Test B pre/postemergence giant foxtail; type: in vivo, Setaria faberii
Procedure, shortened: as §2

[15] = tested on: sugar beet; experiment: Test B pre/postemergence sugar beet; type: in vivo, Beta vulgaris
Procedure, shortened: as §2

[16] = tested on: surinam grass; experiment: Test B pre/postemergence surinam grass; type: in vivo, Brachiaria decumbens
Procedure, shortened: as §2

[17] = Rate 62 g/ha, flood test species, Pre-emergence, visual evaluation after twelve to sixteen days
[18] = Rate 125 g/ha, under heading Pre-emergence, flood test species, visual evaluation after twelve to sixteen days
[19] = Rate 250 g/ha, Pre-emergence (flood test species), scale 0 to 10, 0 is no effect, 10 is complete control
[20] = Rate 500 g/ha, Pre-emergence section of Table B, 0 to 10 scale (0 no effect, 10 complete control)
[21] = Postemergence, Rate 62 g/ha, scale 0 to 10, 0 is no effect, 10 is complete control
[22] = Preemergence, Rate 62 g/ha, scale 0 to 10 (0 no effect, 10 complete control)
[23] = Preemergence, Rate 125 g/ha, scale of 0 to 10 where 0 is no effect and 10 is complete control
[24] = Preemergence, Rate 250 g/ha, scale 0 to 10 (0 no effect, 10 complete control)
[25] = Preemergence, Rate 500 g/ha, scale of 0 to 10 where 0 is no effect and 10 is complete control
[26] = Postemergence, Rate 125 g/ha, scale of 0 to 10 where 0 is no effect and 10 is complete control
[27] = Postemergence, Rate 250 g/ha, scale of 0 to 10, 0 is no effect, 10 is complete control
[28] = Postemergence, Rate 500 g/ha, scale of 0 to 10 where 0 is no effect and 10 is complete control

CC(C)N(C(=O)n1oc(=O)n(CC2CCCCO2)c1=O)c1ccc(F)cc1 (stereo not drawn) [Compound 624]
Plant response rating, Rice (0 to 10 scale, 0 is no effect, 10 is complete control) [1, 17]: 0
Rice plant response rating (0 to 10 scale, 0 is no effect, 10 is complete control) [1, 18]: 0
Rice plant response rating [1, 19]: 0
Rice plant response rating [1, 20]: 0
Plant response rating, Bedstraw [2, 21]: 0
Bedstraw plant response rating [2, 22]: 0
Bedstraw plant response rating [2, 23]: 0
Plant response rating, Bedstraw [2, 24]: 0
Plant response rating, Bedstraw [2, 25]: 3
Plant response rating, Wheat [3, 21]: 0
Plant response rating, Wheat [3, 26]: 0
Wheat plant response rating [3, 27]: 0
Wheat plant response rating [3, 22]: 0
Wheat plant response rating [3, 23]: 0
Plant response rating, Wheat [3, 24]: 6
Plant response rating, Wheat [3, 25]: 7
Plant response rating, Corn [4, 21]: 0
Plant response rating, Corn [4, 26]: 0
Corn plant response rating [4, 27]: 2
Plant response rating, Corn [4, 28]: 5
Corn plant response rating [4, 22]: 0
Corn plant response rating [4, 23]: 0
Plant response rating, Corn [4, 24]: 2
Plant response rating, Corn [4, 25]: 6
Plant response rating, Cocklebur [5, 21]: 0
Plant response rating, Cocklebur [5, 26]: 0
Cocklebur plant response rating [5, 27]: 2
Plant response rating, Cocklebur [5, 28]: 6
Cocklebur plant response rating [5, 22]: 0
Cocklebur plant response rating [5, 23]: 0
Plant response rating, Cocklebur [5, 24]: 0
Plant response rating, Cocklebur [5, 25]: 0
Plant response rating, Morningglory [6, 21]: 1
Plant response rating, Morningglory [6, 26]: 1
Morningglory plant response rating [6, 27]: 1
Plant response rating, Morningglory [6, 28]: 2
Morningglory plant response rating [6, 22]: 0
Morningglory plant response rating [6, 23]: 0
Plant response rating, Morningglory [6, 24]: 0
Plant response rating, Morningglory [6, 25]: 0
Plant response rating, Soybean [7, 21]: 2
Plant response rating, Soybean [7, 26]: 3
Soybean plant response rating [7, 27]: 7
Soybean plant response rating [7, 22]: 0
Soybean plant response rating [7, 23]: 0
Plant response rating, Soybean [7, 24]: 3
Plant response rating, Soybean [7, 25]: 7
Plant response rating, Rape [8, 21]: 0
Plant response rating, Rape [8, 26]: 0
Rape plant response rating [8, 27]: 0
Plant response rating, Rape [8, 28]: 3
Rape plant response rating [8, 22]: 0
Rape plant response rating [8, 23]: 0
Plant response rating, Rape [8, 24]: 1
Plant response rating, Rape [8, 25]: 7
Plant response rating, Wild oats [9, 21]: 0
Plant response rating, Wild oats [9, 26]: 0
Wild oats plant response rating [9, 27]: 0
Wild oats plant response rating [9, 22]: 2
Wild oats plant response rating [9, 23]: 6
Plant response rating, Wild oats [9, 24]: 6
Plant response rating, Wild oats [9, 25]: 6
Plant response rating, Blackgrass [10, 21]: 4
Plant response rating, Blackgrass [10, 26]: 5
Blackgrass plant response rating [10, 27]: 8
Plant response rating, Blackgrass [10, 28]: 9
Blackgrass plant response rating [10, 22]: 1
Blackgrass plant response rating [10, 23]: 8
Plant response rating, Blackgrass [10, 24]: 8
Plant response rating, Blackgrass [10, 25]: 9
Plant response rating, Velvetleaf [11, 21]: 0
Plant response rating, Velvetleaf [11, 26]: 0
Velvetleaf plant response rating [11, 27]: 0
Velvetleaf plant response rating [11, 22]: 0
Velvetleaf plant response rating [11, 23]: 0
Plant response rating, Velvetleaf [11, 24]: 1
Plant response rating, Velvetleaf [11, 25]: 8
Plant response rating, S. Flatsedge (0 to 10 scale, 0 is no effect, 10 is complete control) [12, 17]: 0
S. Flatsedge plant response rating (0 to 10 scale, 0 is no effect, 10 is complete control) [12, 18]: 0
S. Flatsedge plant response rating [12, 19]: 0
S. Flatsedge plant response rating [12, 20]: 0
Plant response rating, Redroot pigweed [13, 21]: 0
Plant response rating, Redroot pigweed [13, 26]: 0
Redroot pigweed plant response rating [13, 27]: 2
Redroot pigweed plant response rating [13, 22]: 0
Redroot pigweed plant response rating [13, 23]: 0
Plant response rating, Redroot pigweed [13, 24]: 3
Plant response rating, Redroot pigweed [13, 25]: 10
Plant response rating, Giant foxtail [14, 21]: 4
Plant response rating, Giant foxtail [14, 26]: 8
Giant foxtail plant response rating [14, 27]: 8
Plant response rating, Giant foxtail [14, 28]: 9
Giant foxtail plant response rating [14, 22]: 10
Giant foxtail plant response rating [14, 23]: 10
Plant response rating, Giant foxtail [14, 24]: 10
Plant response rating, Giant foxtail [14, 25]: 10
Plant response rating, Sugarbeets [15, 21]: 0
Plant response rating, Sugarbeets [15, 26]: 0
Sugarbeets plant response rating [15, 27]: 0
Sugarbeets plant response rating [15, 22]: 0
Sugarbeets plant response rating [15, 23]: 1
Plant response rating, Sugarbeets [15, 24]: 7
Plant response rating, Sugarbeets [15, 25]: 8
Plant response rating, B. signalgrass [16, 21]: 4
Plant response rating, B. signalgrass [16, 26]: 7
B. signalgrass plant response rating [16, 27]: 7
Plant response rating, B. signalgrass [16, 28]: 8
B. signalgrass plant response rating [16, 22]: 3
B. signalgrass plant response rating [16, 23]: 6
Plant response rating, B. signalgrass [16, 24]: 6
Plant response rating, B. signalgrass [16, 25]: 8
